Patent publication US20230302036A1, “COMPOSITIONS FOR TREATMENT OF SPINAL MUSCULAR ATROPHY” (priority 2020, published 2023)
Oligonucleotides are written 5' to 3', each unit as a sugar letter and its base; * is a phosphorothioate linkage, no mark a phosphodiester; rarer units and linkages stand in square brackets, end groups in braces. Plain capitals give the bases only. e = 2'-O-(2-methoxyethyl) (MOE); [5mC] = 5-methylcytosine

Assays:
[1] = system: H3K27 trimethylation over the SMN2 gene; experiment: ChIP-qPCR of H3K27 trimethylation over the SMN2 gene in HEK293T cells; type: cell-based, human; conditions: ASO1 transfection
Protocol: FIGS. 10A-10D show control experiments for the opposing roles of ASO1 on chromatin and splicing. […] Top: control Western blot for efficient expression of the c-Myc-SMN fusion protein encoded by plasmid pcDNA3.1+SMN1mycHIS (Addgene, cat.# 71687) using anti-tubulin (tub.) as loading control. Bottom: SMN2 E7 RT-PCR of cells co-transfected with ASO1 and plasmid. […] Distribution of these histone marks was assessed by ChIP-qPCR, with amplicons mapping near the numbered exons (E) and introns (i). Three independent immunoprecipitation replicates were conducted per experiment. Data are represented as mean ± S.D. (n = 5; in all cases p was much higher than 0.05, two-tailed Student’s t test). […] Top: control Western blot for efficient expression of the GFPRNaseH fusion protein encoded by plasmid pEGFP-RNASEH1 (Addgene, cat.# 108699), using anti-actin (act.) as loading control. Bottom: SMN2 E7 RT-PCR of cells co-transfected with ASO1 and the RNase H plasmid. […] Top: control Western blot for efficient AGO1 knockdown using anti-tubulin (tub.) as loading control. […]
Approximately 2×10^6 HEK293T cells per sample were treated for 10 min in 1% (v/v) formaldehyde at room temperature to crosslink protein-DNA complexes. […] Immunoprecipitated DNA (1.5 µl) and serial dilutions of the 10% input DNA (1:4, 1:20, 1: 100, and 1:500) were analyzed by SYBR-Green real-time qPCR.

[2] = system: H3K9me2 along SERF1A, MYOD, GAPDH; experiment: Specificity control ChIP-qPCR of H3K9me2 on SERF1A, MYOD and GAPDH in HEK293T cells; type: cell-based, human
Protocol: FIGS. 6A-6D show antisense oligonucleotides and their effects on chromatin. […] Uppercase, exonic nucleotide sequence. Lowercase, intronic sequences. Upstream highlight, binding site for ASO1. Downstream highlight, binding site for ASO2. Levels of H3K9me2 deposition along small EDRK-rich factor 1A (SERF1A, upstream of SMN2) (FIG. 6B), Myoblast Determination Protein (MYOD) (FIG. 6C), and Glyceraldehyde 3-phosphate dehydrogenase (GAPDH) (FIG. 6D), were assessed by ChIP-qPCR in HEK293T cells. Data represented as mean ± S.D. (n = 4, *p < 0.05, two-tailed Student’s t test).
(§1) Approximately 2×10^6 HEK293T cells per sample were treated for 10 min in 1% (v/v) formaldehyde at room temperature to crosslink protein-DNA complexes. Crosslinking was stopped with glycine at a final concentration of 125 mM. Cells were washed twice with cold PBS and swelled on ice for 10 min in 25 mM HEPES pH 8, 1.5 mM MgCl2, 10 mM KCl, 0.1% NP-40, 1 mM DTT and 1× protease inhibitor cocktail set III (Calbiochem). Following Dounce homogenization, the nuclei were collected and resuspended in 1 ml sonication buffer (50 mM HEPES pH 8, 140 mM NaCl, 1 mM EDTA, 0.1% sodium deoxycholate, 0.1% SDS and 1× protease inhibitor cocktail). […] Immunoprecipitated DNA (1.5 µl) and serial dilutions of the 10% input DNA (1:4, 1:20, 1: 100, and 1:500) were analyzed by SYBR-Green real-time qPCR.

[3] = system: H3K9me2 along the human SMN2 transgene; experiment: ChIP-qPCR of H3K9me2 along the human SMN2 transgene in brain and liver of P7 SMA mice; type: in vivo, mouse; conditions: P7 SMA mice injected with ASO1
Protocol: (§2) H3K9me2 (left) and total RNAPII (right) distribution along the human SMN2 transgene, assessed by ChIP-qPCR, in brain (FIG. 12A) and liver (FIG. 12B) of P7 SMA mice injected with ASO1. Vertical arrows indicate the approximate location of the target site for ASO1 on the pre-mRNA. Three independent immunoprecipitation replicates were conducted per experiment. Data are represented as mean ± S.D. (n = 3, *p < 0.05, two-tailed Student’s t test).
as §1, with “cocktail). DNA was sonicated in an ultrasonic bath (Bioruptor Diagenode) to an average length of 200-500 bp. After addition of 1% (v/v) Triton X-100, samples were centrifuged at 15,000 ×g.” for “cocktail).”

[4] = system: total RNAPII along the human SMN2 transgene; experiment: ChIP-qPCR of total RNAPII along the human SMN2 transgene in brain and liver of P7 SMA mice; type: in vivo, mouse; conditions: P7 SMA mice injected with ASO1
Protocol: as §2
as §1, with “cocktail). DNA was sonicated in an ultrasonic bath (Bioruptor Diagenode) to an average length of 200-500 bp. After addition of 1% (v/v) Triton X-100, samples were centrifuged at 15,000 ×g.” for “cocktail).”

**Q.** “ASO1: 5′-ATTCACTTTCATAATGCTGG-3′ 2′-O-methoxyethyl-modified oligonucleotide with phosphorothioate backbone and all 5-methyl cytosines; nusinersen variant with 2-nucleotide extension (antisense eA*eT*eT*e[5mC]*eA*e[5mC]*eT*eT*eT*e[5mC]*eA*eT*eA*eA*eT*eG*e[5mC]*eT*eG*eG)” was tested. Which “H3K27 trimethylation over the SMN2 gene” value [1] did it give?
**A.** not affected

**Q.** What about the “H3K9 dimethylation in control genes (same TAD: SERF1A; outside TAD: MYOD, GAPDH)” value [2] of the same substance?
**A.** neither ASO1 nor ASO2 promoted H3K9 dimethylation

**Q.** What about the “H3K9 dimethylation on the SMN2 transgene in liver and brain” value [3] of the same substance?
**A.** higher H3K9 dimethylation

**Q.** What about the “RNAPII accumulation on the SMN2 transgene in liver and brain” value [4] of the same substance?
**A.** RNAPII accumulation
